For three compounds, IC50 and Kd results are on record in ChEMBL document CHEMBL6103667, “Novel Cyclic Peptides Inhibiting Tumor Necrosis Factor Receptor 1 Activity” (ACS Med Chem Lett, 2025).

Assay [1] in a line: Inhibition of TNFalpha-induced NF-kappaB signal transduction pathway in human THP-1 cells preincubated for 1 hrs followed by TNFalpha addition and measured after 16 to 18 hrs by luminescence based microplate reader. The assay is classed as cell-based.
The target in assay [2] is T1, Tumor necrosis factor receptor superfamily member 1A (Homo sapiens, UniProt P19438).
T1 sequence (P19438 whole entry): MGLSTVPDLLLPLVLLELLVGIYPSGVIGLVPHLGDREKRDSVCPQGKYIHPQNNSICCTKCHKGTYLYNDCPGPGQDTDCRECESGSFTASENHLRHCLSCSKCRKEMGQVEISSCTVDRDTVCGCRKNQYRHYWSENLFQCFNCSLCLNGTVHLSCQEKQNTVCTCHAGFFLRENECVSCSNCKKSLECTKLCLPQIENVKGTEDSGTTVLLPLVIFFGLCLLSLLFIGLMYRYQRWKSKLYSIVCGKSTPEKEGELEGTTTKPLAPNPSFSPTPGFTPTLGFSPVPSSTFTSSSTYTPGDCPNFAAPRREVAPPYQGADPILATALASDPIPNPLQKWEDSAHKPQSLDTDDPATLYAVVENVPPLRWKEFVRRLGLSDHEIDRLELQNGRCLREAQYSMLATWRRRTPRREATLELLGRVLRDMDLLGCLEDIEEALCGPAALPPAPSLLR
The assay can be described thus: Displacement of biotinylated peptide from C-terminal 6His-tagged human soluble TNFR1 (1 to 211 residues) extracted from Sf21 baculovirus expression system incubated for 90 mins by LanthaScreen Eu based TR-FRET binding assay.

In assay [3] the target is T2, Tumor necrosis factor receptor superfamily member 1B (Homo sapiens, UniProt P20333).
T2 sequence (P20333 whole entry): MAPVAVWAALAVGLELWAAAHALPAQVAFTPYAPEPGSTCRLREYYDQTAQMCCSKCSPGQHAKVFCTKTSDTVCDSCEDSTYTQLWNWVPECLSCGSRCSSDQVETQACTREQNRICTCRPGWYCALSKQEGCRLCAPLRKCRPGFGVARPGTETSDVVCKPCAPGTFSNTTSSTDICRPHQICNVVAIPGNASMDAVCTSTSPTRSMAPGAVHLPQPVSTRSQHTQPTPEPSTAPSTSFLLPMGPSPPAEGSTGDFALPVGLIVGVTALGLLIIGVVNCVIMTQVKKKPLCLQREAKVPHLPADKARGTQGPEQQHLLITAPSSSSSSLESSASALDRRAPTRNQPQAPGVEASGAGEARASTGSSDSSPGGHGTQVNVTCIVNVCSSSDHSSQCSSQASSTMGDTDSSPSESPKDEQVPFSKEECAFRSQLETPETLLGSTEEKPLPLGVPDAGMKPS
The assay can be described thus: Binding affinity to C-terminal Avi-tagged human TNFR2 extracted from Sf21 baculovirus expression system assessed as dissociation constant incubated for 20 hrs in presence of ATP by SPR analysis.

The target of assay [4] is T1, Tumor necrosis factor receptor superfamily member 1A. Description: Binding affinity to C-terminal Avi-tagged human TNFRl extracted from Sf21 baculovirus expression system assessed as dissociation constant incubated for 20 hrs in presence of ATP by SPR analysis.

Numbered stars: 1 amine (or outer) side, 2 acyl side, 3 side chain; on linkers, the order of the positions; unused ones are H or OH. Bridge positions count the residues as written; N and C are the ends. Square brackets hold non-standard residues; d marks the D form. Peptide text beside a SMILES is read from it. X1 = COc1cccc2c([C@H](C)[C@](C)(N[*:1])C(=O)[*:2])c[nH]c12; Morpholine(3S-CO,6,6-Me2) = CC1(C)CN[C@H](C(=O)O)CO1; Trp(7-Cl) = N[C@@H](Cc1c[nH]c2c(Cl)cccc12)C(=O)O; Phe(4-COOH) = N[C@@H](Cc1ccc(C(=O)O)cc1)C(=O)O; X2 = O=C([C@H]1CC[C@@H](N[*:1])C1)[*:2]; Pip(4-aza) = O=C(O)[C@@H]1CNCCN1; 4Pal = N[C@@H](Cc1ccncc1)C(=O)O; NMeE = CN[C@@H](CCC(=O)O)C(=O)O; X3 = CC[C@H](C(=O)[*:1])[*:2]; NEtAla = CCN[C@@H](C)C(=O)O; αMeS = C[C@](N)(CO)C(=O)O; Nle = CCCC[C@H](N)C(=O)O; Sar = CNCC(=O)O

As to `CCCC[C@@H]1NC(=O)[C@H]2CC[C@H](C2)NC(=O)[C@](C)([C@@H](C)c2c[nH]c3c(OC)cccc23)NC(=O)CN(C)C(=O)[C@H](Cc2ccc(O)cc2)NC(=O)[C@H](Cc2ccc(C(=O)O)cc2)NC(=O)[C@](C)(CO)NC(=O)[C@H](Cc2c[nH]c3c(Cl)cccc23)NC(=O)[C@H](Cc2ccncc2)NC(=O)[C@H](CC(=O)O)NC(=O)[C@H](CCC(=O)O)N(C)C(=O)[C@H](Cc2c[nH]c3ccccc23)NC(=O)[C@@H]2CNCCN2C(=O)[C@H](Cc2ccncc2)NC1=O` (cyclo([4Pal][Trp(7-Cl)][αMeS][Phe(4-COOH)]Y[Sar][X1][X2][Nle][4Pal][Pip(4-aza)]W[NMeE]D)), the half-maximal inhibitory concentration (IC50) – broadly, the concentration that inhibits the measured activity by half – was 1.2 nM in assay [1] and 0.2 nM in assay [2]. Moreover, the Kd – broadly, the equilibrium constant for the complex coming apart – in assay [3] was > 1000 nM; in assay [4], 0.1 nM.

As to `CCCC[C@@H]1NC(=O)[C@@H](CC)SC[C@@H](C(N)=O)NC(=O)[C@](C)([C@@H](C)c2c[nH]c3c(OC)cccc23)NC(=O)CN(C)C(=O)[C@H](Cc2ccc(O)cc2)NC(=O)[C@H](Cc2ccc(C(=O)O)cc2)NC(=O)[C@](C)(CO)NC(=O)[C@H](Cc2c[nH]c3c(Cl)cccc23)NC(=O)[C@H](Cc2ccncc2)NC(=O)[C@H](CC(N)=O)NC(=O)[C@H](CCC(=O)O)N(C)C(=O)[C@H](Cc2c[nH]c3ccccc23)NC(=O)[C@@H]2COC(C)(C)CN2C(=O)[C@H](Cc2ccncc2)NC1=O` ([Nle][4Pal][Morpholine(3S-CO,6,6-Me2)]W[NMeE]N[4Pal][Trp(7-Cl)][αMeS][Phe(4-COOH)]Y[Sar][X1]C-NH2; linker N-14 via X3), the half-inhibitory concentration (IC50) in assay [1] worked out at 2.2 nM; in assay [2], 0.55 nM. In addition, the figures for the dissociation constant Kd in assay [3] and in assay [4] were > 1000 nM and 0.2 nM, respectively.

For `CCCC[C@@H]1NC(=O)CSC[C@@H](C(N)=O)NC(=O)[C@](C)([C@@H](C)c2c[nH]c3c(OC)cccc23)NC(=O)CN(C)C(=O)[C@H](Cc2ccc(O)cc2)NC(=O)[C@H](Cc2ccc(C(=O)O)cc2)NC(=O)[C@](C)(CO)NC(=O)[C@H](Cc2c[nH]c3c(Cl)cccc23)NC(=O)[C@H](Cc2ccncc2)NC(=O)[C@H](CC(N)=O)NC(=O)[C@H](C)N(CC)C(=O)[C@H](Cc2c[nH]c3ccccc23)NC(=O)[C@@H]2COC(C)(C)CN2C(=O)[C@H](Cc2ccncc2)NC1=O` ({CH2CO}-[Nle][4Pal][Morpholine(3S-CO,6,6-Me2)]W[NEtAla]N[4Pal][Trp(7-Cl)][αMeS][Phe(4-COOH)]Y[Sar][X1]C-NH2; thioether N-14), the half-inhibitory concentration (IC50) was 0.8 nM in assay [1] and 0.6 nM in assay [2]. The Kd in assay [3] was > 1000 nM; in assay [4], 0.14 nM.
